# According to PubChem BioAssay (NCI):
#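 Tested at 5 concentrations; 48 h exposure; 96-well plates; endpoints linearly interpolated, else capped at highest concentration. At the TGI there is no net growth.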
# System: MALME-3M melanoma
# Test: NCI-60 cell line screen, 48 h
row,Compound,TGI
1,N#C/C(=C\c1ccc(O)c(O)c1)C(N)=O,> 100 µM
2,COc1cc2c(cc1OC)C(O)[C@H](Br)C(C)(C)O2 (some centres not stated),> 100 µM
3,O=C(CCC/C(CC(=O)c1ccc(Br)cc1)=N\O)Nc1ccccc1,> 100 µM
4,COc1c(C)c2c(c(C)c1Cl)Oc1c(C=O)c(O)c(Cl)c(C)c1C(=O)O2,61 µM
5,NC(CCC(=O)NC(CSC(=O)N(O)c1ccc(Br)cc1)C(=O)NCC(=O)O)C(=O)O (configuration not stated),> 100 µM
6,CCOC(=O)CCc1c(C)c2c(OC(C)=O)cc(OC(C)=O)cc2oc1=O,55.5 µM

# System: BT-549 breast
# Test: NCI-60 cell line screen, 48 h
row,Compound,TGI
1,NC(CCC(=O)NC(CSC(=O)N(O)c1ccc(Br)cc1)C(=O)NCC(=O)O)C(=O)O (configuration not stated),> 50 µM

# System: OVCAR-8 ovarian
# Test: NCI-60 cell line screen, 48 h
row,Compound,TGI
1,N#C/C(=C\c1ccc(O)c(O)c1)C(N)=O,> 100 µM
2,COc1cc2c(cc1OC)C(O)[C@H](Br)C(C)(C)O2 (some centres not stated),> 100 µM
3,Cc1cn(C2CC(N(O)Cc3ccccc3)C(CO)O2)c(=O)[nH]c1=O (configuration not stated),> 100 µM
4,O=C(CCC/C(CC(=O)c1ccc(Br)cc1)=N\O)Nc1ccccc1,> 100 µM
5,COc1c(C)c2c(c(C)c1Cl)Oc1c(C=O)c(O)c(Cl)c(C)c1C(=O)O2,> 100 µM
6,NC(CCC(=O)NC(CSC(=O)N(O)c1ccc(Br)cc1)C(=O)NCC(=O)O)C(=O)O (configuration not stated),> 100 µM
7,CCOC(=O)CCc1c(C)c2c(OC(C)=O)cc(OC(C)=O)cc2oc1=O,> 100 µM

# System: HT29 colon
# Test: NCI-60 cell line screen, 48 h
row,Compound,TGI
1,N#C/C(=C\c1ccc(O)c(O)c1)C(N)=O,> 100 µM
2,COc1cc2c(cc1OC)C(O)[C@H](Br)C(C)(C)O2 (some centres not stated),> 100 µM
3,Cc1cn(C2CC(N(O)Cc3ccccc3)C(CO)O2)c(=O)[nH]c1=O (configuration not stated),> 100 µM
4,O=C(CCC/C(CC(=O)c1ccc(Br)cc1)=N\O)Nc1ccccc1,> 100 µM
5,COc1c(C)c2c(c(C)c1Cl)Oc1c(C=O)c(O)c(Cl)c(C)c1C(=O)O2,> 100 µM
6,NC(CCC(=O)NC(CSC(=O)N(O)c1ccc(Br)cc1)C(=O)NCC(=O)O)C(=O)O (configuration not stated),> 100 µM
7,CCOC(=O)CCc1c(C)c2c(OC(C)=O)cc(OC(C)=O)cc2oc1=O,> 100 µM

# System: HCC-2998 colon
# Test: NCI-60 cell line screen, 48 h
row,Compound,TGI
1,N#C/C(=C\c1ccc(O)c(O)c1)C(N)=O,> 100 µM
2,COc1cc2c(cc1OC)C(O)[C@H](Br)C(C)(C)O2 (some centres not stated),> 100 µM
3,Cc1cn(C2CC(N(O)Cc3ccccc3)C(CO)O2)c(=O)[nH]c1=O (configuration not stated),> 100 µM
4,O=C(CCC/C(CC(=O)c1ccc(Br)cc1)=N\O)Nc1ccccc1,> 100 µM
5,COc1c(C)c2c(c(C)c1Cl)Oc1c(C=O)c(O)c(Cl)c(C)c1C(=O)O2,69.8 µM
6,NC(CCC(=O)NC(CSC(=O)N(O)c1ccc(Br)cc1)C(=O)NCC(=O)O)C(=O)O (configuration not stated),> 100 µM
7,CCOC(=O)CCc1c(C)c2c(OC(C)=O)cc(OC(C)=O)cc2oc1=O,> 100 µM

# System: M14 melanoma
# Test: NCI-60 cell line screen, 48 h
row,Compound,TGI
1,N#C/C(=C\c1ccc(O)c(O)c1)C(N)=O,> 100 µM
2,COc1cc2c(cc1OC)C(O)[C@H](Br)C(C)(C)O2 (some centres not stated),> 100 µM
3,Cc1cn(C2CC(N(O)Cc3ccccc3)C(CO)O2)c(=O)[nH]c1=O (configuration not stated),> 100 µM
4,O=C(CCC/C(CC(=O)c1ccc(Br)cc1)=N\O)Nc1ccccc1,> 100 µM
5,COc1c(C)c2c(c(C)c1Cl)Oc1c(C=O)c(O)c(Cl)c(C)c1C(=O)O2,> 100 µM
6,NC(CCC(=O)NC(CSC(=O)N(O)c1ccc(Br)cc1)C(=O)NCC(=O)O)C(=O)O (configuration not stated),> 100 µM
7,CCOC(=O)CCc1c(C)c2c(OC(C)=O)cc(OC(C)=O)cc2oc1=O,> 100 µM

# System: UACC-257 melanoma
# Test: NCI-60 cell line screen, 48 h
row,Compound,TGI
1,N#C/C(=C\c1ccc(O)c(O)c1)C(N)=O,> 100 µM
2,COc1cc2c(cc1OC)C(O)[C@H](Br)C(C)(C)O2 (some centres not stated),> 100 µM
3,Cc1cn(C2CC(N(O)Cc3ccccc3)C(CO)O2)c(=O)[nH]c1=O (configuration not stated),> 100 µM
4,O=C(CCC/C(CC(=O)c1ccc(Br)cc1)=N\O)Nc1ccccc1,> 100 µM
5,COc1c(C)c2c(c(C)c1Cl)Oc1c(C=O)c(O)c(Cl)c(C)c1C(=O)O2,> 100 µM
6,NC(CCC(=O)NC(CSC(=O)N(O)c1ccc(Br)cc1)C(=O)NCC(=O)O)C(=O)O (configuration not stated),> 100 µM
7,CCOC(=O)CCc1c(C)c2c(OC(C)=O)cc(OC(C)=O)cc2oc1=O,> 100 µM

# System: RXF-631 renal
# Test: NCI-60 cell line screen, 48 h
row,Compound,TGI
1,N#C/C(=C\c1ccc(O)c(O)c1)C(N)=O,> 100 µM

# System: OVCAR-4 ovarian
# Test: NCI-60 cell line screen, 48 h
row,Compound,TGI
1,N#C/C(=C\c1ccc(O)c(O)c1)C(N)=O,> 100 µM
2,COc1cc2c(cc1OC)C(O)[C@H](Br)C(C)(C)O2 (some centres not stated),> 100 µM
3,Cc1cn(C2CC(N(O)Cc3ccccc3)C(CO)O2)c(=O)[nH]c1=O (configuration not stated),> 100 µM
4,O=C(CCC/C(CC(=O)c1ccc(Br)cc1)=N\O)Nc1ccccc1,> 100 µM
5,NC(CCC(=O)NC(CSC(=O)N(O)c1ccc(Br)cc1)C(=O)NCC(=O)O)C(=O)O (configuration not stated),> 100 µM
6,CCOC(=O)CCc1c(C)c2c(OC(C)=O)cc(OC(C)=O)cc2oc1=O,> 100 µM

# System: HCT-15 colon
# Test: NCI-60 cell line screen, 48 h
row,Compound,TGI
1,N#C/C(=C\c1ccc(O)c(O)c1)C(N)=O,> 100 µM
2,COc1cc2c(cc1OC)C(O)[C@H](Br)C(C)(C)O2 (some centres not stated),> 100 µM
3,Cc1cn(C2CC(N(O)Cc3ccccc3)C(CO)O2)c(=O)[nH]c1=O (configuration not stated),> 100 µM
4,NC(CCC(=O)NC(CSC(=O)N(O)c1ccc(Br)cc1)C(=O)NCC(=O)O)C(=O)O (configuration not stated),> 100 µM

# System: ACHN renal
# Test: NCI-60 cell line screen, 48 h
row,Compound,TGI
1,N#C/C(=C\c1ccc(O)c(O)c1)C(N)=O,> 100 µM
2,COc1cc2c(cc1OC)C(O)[C@H](Br)C(C)(C)O2 (some centres not stated),> 100 µM
3,Cc1cn(C2CC(N(O)Cc3ccccc3)C(CO)O2)c(=O)[nH]c1=O (configuration not stated),> 100 µM
4,O=C(CCC/C(CC(=O)c1ccc(Br)cc1)=N\O)Nc1ccccc1,> 100 µM
5,COc1c(C)c2c(c(C)c1Cl)Oc1c(C=O)c(O)c(Cl)c(C)c1C(=O)O2,69.7 µM
6,NC(CCC(=O)NC(CSC(=O)N(O)c1ccc(Br)cc1)C(=O)NCC(=O)O)C(=O)O (configuration not stated),> 100 µM
7,CCOC(=O)CCc1c(C)c2c(OC(C)=O)cc(OC(C)=O)cc2oc1=O,> 100 µM

# System: DMS 273 small cell lung
# Test: NCI-60 cell line screen, 48 h
row,Compound,TGI
1,N#C/C(=C\c1ccc(O)c(O)c1)C(N)=O,> 100 µM
2,COc1cc2c(cc1OC)C(O)[C@H](Br)C(C)(C)O2 (some centres not stated),> 100 µM
3,Cc1cn(C2CC(N(O)Cc3ccccc3)C(CO)O2)c(=O)[nH]c1=O (configuration not stated),> 100 µM
4,COc1c(C)c2c(c(C)c1Cl)Oc1c(C=O)c(O)c(Cl)c(C)c1C(=O)O2,70.5 µM
5,NC(CCC(=O)NC(CSC(=O)N(O)c1ccc(Br)cc1)C(=O)NCC(=O)O)C(=O)O (configuration not stated),> 100 µM
6,CCOC(=O)CCc1c(C)c2c(OC(C)=O)cc(OC(C)=O)cc2oc1=O,> 100 µM

# System: DMS 114 small cell lung
# Test: NCI-60 cell line screen, 48 h
row,Compound,TGI
1,N#C/C(=C\c1ccc(O)c(O)c1)C(N)=O,> 100 µM
2,COc1cc2c(cc1OC)C(O)[C@H](Br)C(C)(C)O2 (some centres not stated),> 100 µM
3,Cc1cn(C2CC(N(O)Cc3ccccc3)C(CO)O2)c(=O)[nH]c1=O (configuration not stated),> 100 µM
4,O=C(CCC/C(CC(=O)c1ccc(Br)cc1)=N\O)Nc1ccccc1,> 100 µM
5,COc1c(C)c2c(c(C)c1Cl)Oc1c(C=O)c(O)c(Cl)c(C)c1C(=O)O2,79.1 µM
6,NC(CCC(=O)NC(CSC(=O)N(O)c1ccc(Br)cc1)C(=O)NCC(=O)O)C(=O)O (configuration not stated),> 100 µM
7,CCOC(=O)CCc1c(C)c2c(OC(C)=O)cc(OC(C)=O)cc2oc1=O,70.8 µM

# System: HCT-116 colon
# Test: NCI-60 cell line screen, 48 h
row,Compound,TGI
1,N#C/C(=C\c1ccc(O)c(O)c1)C(N)=O,67.9 µM
2,COc1cc2c(cc1OC)C(O)[C@H](Br)C(C)(C)O2 (some centres not stated),> 100 µM
3,Cc1cn(C2CC(N(O)Cc3ccccc3)C(CO)O2)c(=O)[nH]c1=O (configuration not stated),> 100 µM
4,O=C(CCC/C(CC(=O)c1ccc(Br)cc1)=N\O)Nc1ccccc1,> 100 µM
5,COc1c(C)c2c(c(C)c1Cl)Oc1c(C=O)c(O)c(Cl)c(C)c1C(=O)O2,61.9 µM
6,NC(CCC(=O)NC(CSC(=O)N(O)c1ccc(Br)cc1)C(=O)NCC(=O)O)C(=O)O (configuration not stated),> 100 µM
7,CCOC(=O)CCc1c(C)c2c(OC(C)=O)cc(OC(C)=O)cc2oc1=O,> 100 µM

# System: A498 renal
# Test: NCI-60 cell line screen, 48 h
row,Compound,TGI
1,N#C/C(=C\c1ccc(O)c(O)c1)C(N)=O,> 100 µM
2,COc1c(C)c2c(c(C)c1Cl)Oc1c(C=O)c(O)c(Cl)c(C)c1C(=O)O2,58.8 µM
3,NC(CCC(=O)NC(CSC(=O)N(O)c1ccc(Br)cc1)C(=O)NCC(=O)O)C(=O)O (configuration not stated),> 100 µM

# System: SK-MEL-5 melanoma
# Test: NCI-60 cell line screen, 48 h
row,Compound,TGI
1,COc1cc2c(cc1OC)C(O)[C@H](Br)C(C)(C)O2 (some centres not stated),> 100 µM
2,Cc1cn(C2CC(N(O)Cc3ccccc3)C(CO)O2)c(=O)[nH]c1=O (configuration not stated),> 100 µM
3,O=C(CCC/C(CC(=O)c1ccc(Br)cc1)=N\O)Nc1ccccc1,> 100 µM
4,COc1c(C)c2c(c(C)c1Cl)Oc1c(C=O)c(O)c(Cl)c(C)c1C(=O)O2,> 100 µM
5,NC(CCC(=O)NC(CSC(=O)N(O)c1ccc(Br)cc1)C(=O)NCC(=O)O)C(=O)O (configuration not stated),> 100 µM

# System: KM20L2 colon
# Test: NCI-60 cell line screen, 48 h
row,Compound,TGI
1,N#C/C(=C\c1ccc(O)c(O)c1)C(N)=O,> 100 µM
2,COc1cc2c(cc1OC)C(O)[C@H](Br)C(C)(C)O2 (some centres not stated),> 100 µM
3,Cc1cn(C2CC(N(O)Cc3ccccc3)C(CO)O2)c(=O)[nH]c1=O (configuration not stated),> 100 µM
4,O=C(CCC/C(CC(=O)c1ccc(Br)cc1)=N\O)Nc1ccccc1,> 100 µM
